From patent US20150004126A9, “COMPOSITIONS” (GIVAUDAN S.A., priority 2011, published 2015)

Key:
[1] = molecular target: N-alpha acyl glutamine aminoacylase (Corynebacterium striatum, UniProt Q8GGD4); assay: Malodour generated on cloth with enzyme and HMHA sweat precursor, assessed by a panel; assay type: biochemical, Corynebacteria; details: 0.1% compound in respective test products (un-fragranced base, fragranced base, Febreze) on polycotton cloth with HMHA precursor and enzyme, 37° C. 30 min; panel scale 0-10; vs untreated control
Chain of N-alpha acyl glutamine aminoacylase (Q8GGD4 whole entry): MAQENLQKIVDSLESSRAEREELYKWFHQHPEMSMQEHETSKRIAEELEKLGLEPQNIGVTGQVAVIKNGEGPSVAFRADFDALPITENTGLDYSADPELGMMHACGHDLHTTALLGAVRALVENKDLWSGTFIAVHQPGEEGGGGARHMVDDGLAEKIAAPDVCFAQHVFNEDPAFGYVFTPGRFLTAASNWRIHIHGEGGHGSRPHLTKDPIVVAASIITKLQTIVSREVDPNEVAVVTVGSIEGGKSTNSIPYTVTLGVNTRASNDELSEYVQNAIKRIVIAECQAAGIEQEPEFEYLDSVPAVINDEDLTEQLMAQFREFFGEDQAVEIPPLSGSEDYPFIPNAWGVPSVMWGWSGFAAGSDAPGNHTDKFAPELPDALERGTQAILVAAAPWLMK
Source text: The objective of the study is to measure the effectiveness of malodour-counteracting compounds for use in the present invention at reducing malodour generated on cloth in the presence of the enzyme N-alpha acyl glutamine aminoacylase, and the sweat precursor for the malodorous fatty acid 3-methyl-3-hydroxy-hexanoic acid (HMHA). The aim is to achieve a significant reduction in malodour on cloth against: • a) an untreated fabric • b) a marketed fabric freshener, namely Spring & Renewal Febreze®.
140 μg of odourless precursor for HMHA (equivalent to 15 minutes of physical exercise) is dissolved in 125 μl of 12% ethanol/88% water and applied to 12.5 cm2 polycotton (40/60 mix) cloth in a 30 ml Beatson jar.
The cloth was allowed to dry completely in a 40° C. oven before checking for residual malodour.
Thereafter, the cloth was moistened with 125 μl of a solution containing 0.33 μg/ml of the enzyme N-α-acyl glutamine aminoacylase in 50 mM phosphate buffer pH 6 and the treated cloth was allowed to incubate in a glass jar at 37° C. for 30 minutes.
Thereafter a few drops of a 10% concentration of HCL were added to protonate the acids.
Malodour was assessed by a panel on a scale of 0 (nothing)-10 (very strong)
Malodour precursor was applied to cloth as described above and the cloth allowed to dry in an oven at 40° C.
125 μl of each of the following solutions was applied on to polycotton cloth already containing the precursor and allowed to dry in a 40° C. oven:
0.1% of the Compounds (I), (II), and (III) defined above (hereinafter referred to generally as “compound”), dissolved in an un-fragranced in-house fabric refresher base 0.1% of each compound dissolved in a fragranced fabric refresher base fragranced with a 0.05% of a proprietary fragrance having a floral-green-aldehyde odour (hereinafter “fragrance”).
0.1% of each inhibitor dissolved in a Febreze(r) Market product (Spring & Renewal) […]

[2] = Solubility in a cyclodextrin-containing fabric refreshener; assay type: physicochemical; details: at 0.1%

Structure (SMILES) | malodour reduction compared with the control [1] | solubility in a cyclodextrin-containing fabric refreshener [2]
CCCCC(CC)CNC(=O)N[C@@H](CCC(N)=O)C(=O)O (stereo partly drawn) [Compound III] | clear and significant malodour reduction | soluble
CC(CCOC(=O)NC(CCC(N)=O)C(=O)O)CCc1ccccc1 (stereo not drawn) [Compound II] | clear and significant malodour reduction | soluble
NC(=O)CC[C@H](NC(=O)OCc1ccccc1)C(=O)O [Compound I] | clear and significant malodour reduction | soluble
